Measurements published in PMC9139161, “Phenolics from Chrozophora oblongifolia Aerial Parts as Inhibitors of α-Glucosidases and Advanced Glycation End Products: In-Vitro Assessment, Molecular Docking and Dynamics Studies” (Biology, 2022).
Read-outs that look alike come from different tables or passages of the source.

What was measured:
[1] = ABTS assay; details: ascorbic acid equivalents; mean ± SD, n = 3
Protocol: DMSO was used for the preparation of 0.5 mg/mL concentrations of isolated compounds, meanwhile, the positive control (ascorbic acid) was used to prepare a stock solution of 1000 µM in water; from which seven concentrations were prepared including 7.812, 15.625, 31.25, 62.5, 125, 250 and 500 µM to construct the concentration-response curve (Supplementary Data Figure S2). The activity of the tested compounds to scavenge the free radicals of ABTS (2,2′-azino-bis (3-ethylbenzothiazoline-6-sulfonic acid)) was assessed according to the methodology reported previously with slight modifications.
Five milliliters of aqueous solution (7 mM) of ABTS was mixed with 88 µL potassium persulfate (140 mM) and the mixture was kept in the dark for 16 h to produce ABTS radical cation (ABTS^•+). Then methanol was added to the reaction mixture to dilute the formed ABTS^•+ solution to an absorbance of 0.700 (1:50) at 690 nm.
Ten microliters of the tested compound were incubated with 190 μL of ABTS^•+ solution in a 96-well plate for thirty minutes in the dark and the absorbance was measured later using a microplate reader (TECAN, Männedorf, Switzerland) at 690 nm. Data are represented as means (n = 3) ± SD and the antioxidant effect of the tested compounds was calculated as µM Ascorbic acid equivalents by substitution in the linear regression equation (Supplementary Figure S2).

[2] = molecular target: T1, α-Glucosidase from Saccharomyces cerevisiae (Saccharomyces cerevisiae, UniProt P53341); assay: α-Glucosidase inhibition (pNPG colorimetric); type: biochemical
T1 construct: purchased Sigma-Aldrich G003
Protocol: α-Glucosidase from Saccharomyces cerevisiae (Sigma-Aldrich, St. Louis, MO, USA cat#G003) was used in this assay. Solutions of the different compounds were prepared in 1000 µM final concentrations in dimethyl sulfoxide (DMSO). Compounds that exceeded 50% inhibition at this concentration were serially diluted to determine their half-maximal inhibitory concentration (IC50).
Briefly, 25 μL of samples/blank were incubated for 10 min at 37 °C with 50 μL of α-glucosidase (0.6 U/mL) in phosphate buffer (0.1 M, pH 7) in 96-microwell plates. The mixture was then incubated at 37 °C for 5 min with 25 μL of 3 mM pNPG in phosphate buffer (pH 7). A microplate reader (TECAN, Männedorf, Switzerland) was used to measure p-nitrophenol release from pNPG substrate at 405 nm to determine enzyme activity. Then, % α-glucosidase inhibition was estimated.

[3] = molecular target: T2, porcine pancreatic lipase type II (Sus scrofa, UniProt P00591); assay: Pancreatic lipase inhibition (p-NPD substrate); type: biochemical; details: for IC50: porcine pancreatic lipase, p-NPD substrate, read-out: Pancreatic lipase IC50 (Mean ± SE)
T2 construct: purchased sigma Aldrich L3126
T2 sequence (P00591 1-450): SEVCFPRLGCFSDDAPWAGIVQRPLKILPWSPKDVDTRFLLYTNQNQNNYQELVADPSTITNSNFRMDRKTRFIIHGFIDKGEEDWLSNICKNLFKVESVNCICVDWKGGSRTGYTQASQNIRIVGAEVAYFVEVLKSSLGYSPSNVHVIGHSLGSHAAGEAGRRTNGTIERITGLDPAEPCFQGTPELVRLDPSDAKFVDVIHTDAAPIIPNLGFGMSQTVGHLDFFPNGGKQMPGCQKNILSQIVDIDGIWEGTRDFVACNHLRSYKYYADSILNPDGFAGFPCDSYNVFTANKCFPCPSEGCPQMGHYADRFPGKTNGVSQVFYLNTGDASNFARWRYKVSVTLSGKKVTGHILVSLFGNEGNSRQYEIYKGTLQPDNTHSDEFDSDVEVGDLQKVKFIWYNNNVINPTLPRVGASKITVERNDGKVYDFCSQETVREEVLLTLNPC
Protocol: The inhibition of pancreatic lipase activity was assessed using p-nitrophenyl dodecanoate (p-NPD, Sigma-Aldrich, St. Louis, MO, USA cat#N0252) as substrate and porcine pancreatic lipase type II (PPL, sigma Aldrich, cat#L3126) which was described previously with slight modification. Solutions of the provided compounds were prepared in final concentrations of 50 µM in 5% DMSO. […] In a Tris-HCl buffer (100 mM, pH 8); 50 μL of PPL (1 mg/mL) was incubated with 25 μL of samples/blank for 10 min at 37 °C. Then, 10 μL of solution p-NPD (10 mM, in isopropanol) was added followed by dilution of the final volume to 200 μL with Tris-HCl buffer. The mixture was incubated for 20 min at 37 °C and absorbance was then measured at 405 nm on a TECAN microplate reader (Männedorf, Switzerland). After that, the percentage of lipase inhibition was assessed (Supplementary Table S1 and Figure S1).

[4] = tested on: advanced glycation end products (AGEs) formation, BSA-methylglyoxal model; assay: AGEs formation inhibition, BSA-methylglyoxal assay; type: biochemical; details: AGEs fluorescence, 72 h, 37 °C; read-out: BSA-Methylglyoxal Model IC50 (Mean ± SE)
Protocol: (§1) The isolated compounds were prepared at final concentrations of 500 µM in DMSO in the BSA-fructose assay, and 1000 µM in all other AGEs assays. Compounds that exceeded 50% inhibition at this concentration were serially diluted to determine their IC50. All tests were conducted using quercetin (positive control).
AGEs inhibitory activity of the isolated compounds was determined according to the reported procedures with slight modification. Briefly, in black 96-microwell plates, samples were incubated for 72 h at 37 °C in the dark with bovine serum albumin (BSA, 50 mg/mL) (in 200 mM phosphate buffer, pH 7.4, with 0.02% sodium azide) and methyl-glyoxal (53.3 mM, in distilled water), (1:1:1 v/v/v). On a microplate reader (Fluostar Omega/BMG Labtech/Germany), fluorescent AGEs were detected using excitation and emission wavelengths of 355 nm and 460 nm, respectively. Triplicates of all experiments were performed.

[5] = tested on: advanced glycation end products (AGEs) formation, arginine-methylglyoxal model; assay: AGEs formation inhibition, arginine-methylglyoxal assay; type: biochemical; details: AGEs fluorescence, 72 h, 37 °C; read-out: Arginine-Methylglyoxal Model IC50 (Mean ± SE)
Protocol: as §1
The determination of the inhibitory effect of the isolated compounds on the formation of AGEs in the arginine methylglyoxal model was used as described previously with slight modification. Briefly, in black 96-microwell plates, a sample was incubated for 72 h at 37 °C in the dark with methylglyoxal (53.3 mM, in distilled water) and 106.6 mM arginine (in 200 mM phosphate buffer, pH 7.4, with 0.02% sodium azide), (1:1:1 v/v/v). On a microplate reader (Fluostar Omega/BMG Labtech/Germany), fluorescent AGEs were detected using excitation and emission wavelengths of 355 nm and 460 nm, respectively. Triplicates of all experiments were performed.

[6] = Saccharomyces cerevisiae enzyme, pNPG substrate, read-out: α-Glucosidase assay IC50 (Mean ± SE)

T1 sequence (P53341 whole entry): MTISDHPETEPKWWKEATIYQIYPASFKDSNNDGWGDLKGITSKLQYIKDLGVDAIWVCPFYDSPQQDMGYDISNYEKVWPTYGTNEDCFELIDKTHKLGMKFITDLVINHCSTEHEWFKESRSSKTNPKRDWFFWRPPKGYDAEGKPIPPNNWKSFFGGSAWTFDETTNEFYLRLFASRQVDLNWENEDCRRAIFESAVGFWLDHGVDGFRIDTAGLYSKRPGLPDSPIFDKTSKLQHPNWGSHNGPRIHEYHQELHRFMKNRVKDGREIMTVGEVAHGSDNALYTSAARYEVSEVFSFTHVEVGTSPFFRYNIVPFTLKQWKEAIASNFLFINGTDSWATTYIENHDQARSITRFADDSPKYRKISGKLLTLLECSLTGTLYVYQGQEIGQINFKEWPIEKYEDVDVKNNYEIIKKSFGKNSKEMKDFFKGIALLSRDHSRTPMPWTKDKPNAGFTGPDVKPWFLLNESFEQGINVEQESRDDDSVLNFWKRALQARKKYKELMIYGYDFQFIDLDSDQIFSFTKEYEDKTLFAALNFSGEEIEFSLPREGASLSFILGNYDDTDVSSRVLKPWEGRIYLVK

SMILES	ABTS [1] [mM AAE/mg]	IC50 [2] [µM]	IC50 [3] [µM]	IC50 [4] [µM]	IC50 [5] [µM]	IC50 [2, 6] [µM]	inhibition at 50 µM [3] [%]	Pancreatic lipase inhibitory effect (in words) ([3]; till 50 μM concentration)
C[C@@H]1O[C@@H](OC[C@H]2O[C@@H](Oc3c(-c4ccc(O)c(O)c4)oc4cc(O)cc(O)c4c3=O)[C@H](O)[C@@H](O)[C@@H]2O)[C@H](O)[C@H](O)[C@H]1O [Compound 4, rutin]	1.972±0.059	754	> 50	493	303	–	–	–
O=C(O)[C@H]1O[C@@H](Oc2c(-c3ccc(O)c(O)c3)oc3cc(O)cc(O)c3c2=O)[C@H](O)[C@@H](O)[C@@H]1O [Compound 2, quercetin-3-O-β-D-glucuronic acid]	0.646 ±0.072	–	> 50	1880	1140	545	1.92	–
O=C(O)[C@H]1O[C@@H](Oc2c(-c3ccc(O)c(O)c3)oc3cc(O)cc(O)c3c2=O)[C@H](O)[C@@H](O)[C@H]1O [Compound 3, quercetin-3-O-β-D-galacturonic acid]	0.210 ±0.012	–	> 50	> 1200	> 1200	385	2.26	–
O=c1cc(-c2ccc(O)cc2)oc2cc(O[C@@H]3O[C@H](CO)[C@@H](O)[C@H](O)[C@H]3O)cc(O)c12 [Compound 1, apeginin-7-O-β-D-glucoside]	0.702±0.050	408	> 50	668	474	–	4.48	–
O=C(OC[C@H]1O[C@H](OC(=O)c2cc(O)c(O)c(O)c2)[C@H](O)[C@@H](OC(=O)c2cc(O)c(O)c(O)c2)[C@@H]1O)c1cc(O)c(O)c(O)c1 (stereo in doubt) [Compound 5, 1,3,6-trigalloyl glucose]	9.640±0.061	–	> 50	657	226	4.5	–	did not show any inhibitory effect
